From patent US6365616B1, “Methimazole derivatives and tautomeric cyclic thiones to treat autoimmune diseases” (Sentron Medical, Inc., priority 1998, dated 2002)
Like-named read-outs stand apart in the source and are kept apart here.

B1: γ-IFN: rat recombinant γ-interferon, 100 U/ml, used to increase MHC class I and class II expression in FRTL-5 cells (protein, UniProt P01581 23-156, looked up)
Interferon gamma: QGTLIESLESLKNYFNSSSMDAMEGKSLLLDIWRNWQKDGNTKILESQIISFYLRLFEVLKDNQAISNNISVIESHLITNFFSNSKAKKDAFMSIAKFEVNNPQIQHKAVNELIRVIHQLSPESSLRKRKRSRC

Test system: swine class I promoter (PD1)
Test: Transient transfection CAT assay, class I promoter chimeras in FRTL-5 cells
Format: cell-based
Conditions: for inhibition at 10 µM / inhibition at 25 µM / inhibition at 100 µM / inhibition at 1000 µM / inhibition at 5000 µM: Sus scrofa; for CAT activity +γIFN (100 U/ml) + MMI (5 mM) / CAT activity +γIFN (100 U/ml): 5H medium
Text: The full length PD1 promoter, PD1 CAT construct pH […], inserted into the multicloning site of pSV3CAT, has been previously described (Erhlich, R. et al. Immunogenetics 30:18-26 (1989)). […] The deletion series was also cloned into the pSV3CAT reporter construct to assess promoter activities (Weisman J D, et al. ibid (1991); Maguire, J. et al., Mol. Cell. Biol., 12:3078-3086 (1992)). […] The number denotes the most 5′-residue in the 5′-flanking region of the PD1 promoter.
FRTL-5 rat thyroid cells (Interthyr Research Foundation, Baltimore, Md.; ATCC CRL8305) were the same subclone (F1) used in the gel shift experiments described earlier. They were grown in the following medium: Coon's modified F-12 medium containing 5% heat-treated, mycoplasma-free calf serum, 1 mM nonessential amino acids, and a mixture of six hormones (6H) containing bovine TSH (1×10^−10M), insulin (10 μg/ml), cortisol (0.4 ng/ml), transferrin (5 μg/ml), glycyl-L-histidyl-L-lysine acetate (10 ng/ml), and somatostatin (10 ng/ml). Cells were diploid and between their 5th and 25th passage. Fresh medium was added every 2 or 3 days and cells were passaged every 7-10 days. In some experiments, cells were grown to near confluency in 6H medium then maintained for 5-8 days, before experiments were initiated, in 5H medium with no TSH.
To measure the promoter activity of MHC class I promoter constructs, as reported by CAT activity, two procedures were used. In one, rat FRTL-5 thyroid cells were transfected by the electroporation method described previously (Saji, M., et al., ibid (1992b); Giuliani, C., et al., ibid (1995); Saji, M., et al., ibid (1997)). In brief, FRTL-5 cells were grown to 80% confluence, put in fresh 6H medium containing 5% calf serum for 12 hours, harvested, washed and suspended at 1.5×10^7 cells/mil in 0.8 ml electroporation buffer (272 mM sucrose, 7 mM sodium phosphate at pH 7.4, and 1 mM MgCl2). Twenty μg of the full-length CAT construct were added with 5 μg pSVGH. Cells were then pulsed (330 volts, capacitance 25 μfarad), plated (approximately 6×10^6 cell/dish), and cultured for 12 hours in 6H medium containing 5% calf serum. […] After 48 hours they were harvested. […] Medium was taken for hGH radioimmunoassay to monitor transfection efficiency (Nichols Institute, San Juan Capistrano, Calif.) and cells were harvested for CAT assays which used 20-50 μg cell lysate in a final volume of 130 μl. Incubation was at 37° C. for 2 or 4 hours; acetylated chloramphenicol was separated by thin layer chromatograpy (TLC) and positive spots on TLC plates were cut out and quantitated in a scintillation spectrometer. CAT activity was normalized to GH activity and/or cell protein before data were compared.
Alternatively transient transfections used the same class I-CAT chimeras and a DEAE-dextran procedure (Lopata M A, et al., Nucleic Acids Res. 12:5707-5717 (1984); Giuliani C, et al., ibid (1995)). Cells were grown to near (80%) confluency in 6H medium, shifted to 5H medium for 1 day, washed twice with Dulbecco's modified phosphate buffered saline (DPBS), pH 7.4, and incubated 1 hour with 5 ml serum-free 5H medium containing the plasmid DNA plus 250 μg DEAE-dextran (5 Prime-3 Prime, Inc.). Cells were then exposed to 10% dimethylsulfoxide in DPBS for 3 min., washed twice in DPBS, cultured in 5H medium for 24 hours, then maintained therein another 48 hours with or without MMI, MMI derivatives or tautomeric cyclic thiones, as noted. Efficiency of transfection was determined by cotransfection as above or with 5 μg pRSVLuc (De Wet J R, et al., Mol. Cell. Biol. 7:725-737 (1987)).
In this experiment, FRTL-5 cells were grown to near confluency in 6H medium (plus TSH) and then were maintained in 5H medium (no TSH) for 7 days before being treated with γ-IFN or γ-IFN plus MMI for 40 hours. Control cells were those maintained in 5H medium for the same 40 hours. CAT activity was measured as described above.

[1] = 10 μM, 100 U/ml γ-interferon, 6H medium, 40 hours
[2] = 100 μM, 100 U/ml γ-interferon, 6H medium, 40 hours
[3] = 1.0 mM, 100 U/ml γ-interferon, 6H medium, 40 hours
[4] = 5 mM, 100 U/ml γ-interferon, 6H medium, 40 hours
[5] = FRTL-5, 10 μM, 100 U/ml γ-interferon, 6H medium, 40 hours, read-out: % inhibition of IFN-increased p(−203)CAT class I promoter activity
[6] = FRTL-5, 25 μM, 6H medium, 36 hours, read-out: % inhibition of basal p(−203)CAT class I promoter activity
[7] = FRTL-5, 100 μM, 6H medium, 36 hours, read-out: % inhibition of basal p(−203)CAT class I promoter activity
[8] = FRTL-5, 100 μM, 100 U/ml γ-interferon, 6H medium, 40 hours, read-out: % inhibition of IFN-increased p(−203)CAT class I promoter activity
[9] = FRTL-5, 1.0 mM, 6H medium, 36 hours, read-out: % inhibition of basal p(−203)CAT class I promoter activity
[10] = FRTL-5, 1.0 mM, 100 U/ml γ-interferon, 6H medium, 40 hours, read-out: % inhibition of IFN-increased p(−203)CAT class I promoter activity
[11] = FRTL-5, 5 mM, 6H medium, 36 hours, read-out: % inhibition of basal p(−203)CAT class I promoter activity
[12] = FRTL-5, 5 mM, 100 U/ml γ-interferon, 6H medium, 40 hours, read-out: % inhibition of IFN-increased p(−203)CAT class I promoter activity
[13] = FRTL-5, read-out: % inhibition of IFN-increased p(−203)CAT class I promoter activity
[14] = FRTL-5, read-out: % inhibition of basal p(−203)CAT class I promoter activity

Molecule	inhibition at 10 µM [5]	inhibition at 25 µM [6]	inhibition at 100 µM [7]	inhibition at 100 µM [8]	inhibition at 1000 µM [9]	inhibition at 1000 µM [10]	inhibition at 5000 µM [11]	inhibition at 5000 µM [12]	also measured
Cn1ccn(C)c1=S [Compound 8, N-Methylmethimazole]									% inhibition of IFN-increased p(−203)CAT class I promoter activity [1]: 0%; % inhibition of basal p(−203)CAT class I promoter activity (25 μM, 6H medium, 36 hours): 5 ± 5%; % inhibition of basal p(−203)CAT class I promoter activity (100 μM, 6H medium, 36 hours): 48 ± 10%; % inhibition of IFN-increased p(−203)CAT class I promoter activity [2]: 38 ± 9%; % inhibition of basal p(−203)CAT class I promoter activity (1.0 mM, 6H medium, 36 hours): 72 ± 6%; % inhibition of IFN-increased p(−203)CAT class I promoter activity [3]: 69 ± 7%; % inhibition of basal p(−203)CAT class I promoter activity (5 mM, 6H medium, 36 hours): 87 ± 11%; % inhibition of IFN-increased p(−203)CAT class I promoter activity [4]: 77 ± 14%
Cc1cnc(S)n1C [Compound 9, 5-Methylmethimazole]	0%	0%	0%	0%	14 ± 10%	10 ± 10%	25 ± 7%	29 ± 11%	
CSc1nccn1C [Compound 7, S-Methylmethimazole]	0%	0%	10 ± 9%	14 ± 11%	51 ± 6%	50 ± 13%	68 ± 8%	58 ± 12%	
Cn1ccnc1S [Compound 1, 1-Methylimidazole-2-thiol]	0%	0%	0%	0%	32 ± 7%	35 ± 8%	74 ± 10%	72 ± 12%	CAT activity +γIFN (100 U/ml) + MMI (5 mM) (chimera p(−127), 40 hours): 55 ± 4 % of Control; CAT activity +γIFN (100 U/ml) + MMI (5 mM) (chimera p(−203), 40 hours): 95 ± 26 % of Control; CAT activity +γIFN (100 U/ml) + MMI (5 mM) (chimera p(−1100), 40 hours): 163 ± 48 % of Control; CAT activity +γIFN (100 U/ml) + MMI (5 mM) (pSV0 control plasmid, 40 hours): 38 ± 9 % of Control
Cc1ccc2[nH]c(S)nc2c1 [Compound 6, 2-Mercapto-5-methylbenzimidazole]							57 ± 13%	49 ± 7%	
O=[N+]([O-])c1ccc2[nH]c(S)nc2c1 [Compound 5, 2-Mercapto-5-nitrobenzimidazole]							45 ± 8%	43 ± 9%	
Sc1ncc[nH]1 [Compound 3, 2-Mercaptoimidazole]									% inhibition of IFN-increased p(−203)CAT class I promoter activity [1]: None; % inhibition of IFN-increased p(−203)CAT class I promoter activity [2]: None; % inhibition of IFN-increased p(−203)CAT class I promoter activity [3]: None; % inhibition of IFN-increased p(−203)CAT class I promoter activity [4]: None
Sc1nc2ccccc2[nH]1 [Compound 4, 2-Mercaptobenzimidazole]									inhibition at 10 µM [13]: 0%; inhibition at 100 µM [13]: 0%; inhibition at 1000 µM [13]: 40 ± 8%; inhibition at 5000 µM [13]: 76 ± 10%; inhibition at 25 µM [14]: 0%; inhibition at 100 µM [14]: 0%; inhibition at 1000 µM [14]: 50 ± 12%; inhibition at 5000 µM [14]: 90 ± 14%
Cn1c(-c2ccccc2)cnc1S [Compound 10, 5-Phenylmethimazole]	35 ± 10%	45 ± 9%	71 ± 6%	81 ± 14%	92 ± 12%	90 ± 13%			
Cc1ncc([N+](=O)[O-])n1CCO [Compound 2, 2-Methyl-5-nitro-1-imidazole ethanol]	0%	0%	10 ± 8%	0%	37 ± 11%	45 ± 5%	74 ± 9%	84 ± 13%	
B1									CAT activity +γIFN (100 U/ml) (chimera p(−127), 40 hours): 500 ± 27 % of Control; CAT activity +γIFN (100 U/ml) (chimera p(−203), 40 hours): 750 ± 25 % of Control; CAT activity +γIFN (100 U/ml) (chimera p(−1100), 40 hours): 460 ± 40 % of Control; CAT activity +γIFN (100 U/ml) (pSV0 control plasmid, 40 hours): 48 ± 7 % of Control
